These results are taken from US20210122730A1, “GLUCOCORTICOID RECEPTOR MODULATORS” (ORIC Pharmaceuticals, Inc., priority 2017, published 2021).

The target of this experiment is T1, GR (Homo sapiens, UniProt P04150).
T1 construct: expressed in transfected cells; host or cells: CHO-K1
T1 sequence (P04150 1-777): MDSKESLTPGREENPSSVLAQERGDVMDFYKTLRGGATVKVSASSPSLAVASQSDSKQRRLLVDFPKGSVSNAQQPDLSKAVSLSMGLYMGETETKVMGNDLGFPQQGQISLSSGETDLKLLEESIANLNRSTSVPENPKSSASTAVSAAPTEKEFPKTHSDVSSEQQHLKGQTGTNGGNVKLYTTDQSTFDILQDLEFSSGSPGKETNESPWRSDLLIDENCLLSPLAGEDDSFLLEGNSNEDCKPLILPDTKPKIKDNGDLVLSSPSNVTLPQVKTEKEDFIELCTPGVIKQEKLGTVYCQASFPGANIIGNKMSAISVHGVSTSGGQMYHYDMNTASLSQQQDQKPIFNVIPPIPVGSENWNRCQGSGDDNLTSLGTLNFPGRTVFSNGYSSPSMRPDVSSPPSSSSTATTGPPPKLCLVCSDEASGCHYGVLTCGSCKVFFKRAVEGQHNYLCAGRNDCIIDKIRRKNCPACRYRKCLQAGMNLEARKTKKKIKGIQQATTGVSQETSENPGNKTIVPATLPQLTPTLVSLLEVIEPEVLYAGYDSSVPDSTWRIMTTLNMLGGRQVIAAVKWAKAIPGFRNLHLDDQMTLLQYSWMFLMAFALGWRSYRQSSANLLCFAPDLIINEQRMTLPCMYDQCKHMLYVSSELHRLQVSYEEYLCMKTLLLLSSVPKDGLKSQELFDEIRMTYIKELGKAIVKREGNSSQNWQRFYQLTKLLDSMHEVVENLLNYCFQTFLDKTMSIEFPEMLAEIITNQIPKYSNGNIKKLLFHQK
Put plainly: In Vitro GR Luciferase Reporter Assay (antagonist mode, CHO-K1-GR-MMTV-Luc reporter cells). It is filed as cell-based. As to conditions: antagonist assay with 10 nM Dexamethasone, 18-24 hours. An excerpt: Example A: In Vitro GR Luciferase Reporter Assay
Cell Line: CHO-K1-GR-MMTV-Luc reporter cells
Culture Media: DMEM (with phenol red)+10% FBS
Assay Media: DMEM (without phenol red)+10% CSS
Culture CHO-K1I-GR-MMTV-Luc reporter cells in 15 cm plates in Culture Media at conditions less than 90% confluence.
Prepare 200×DMSO 1:5 serial dilutions of control and test compounds in 96-well non-sterile V bottom plate in DMSO, 8serial dilutions for each compound.
Prepare 5× Assay Media diluted compound serial dilutions in 96-well non-sterile V bottom plate: Add 97.5 uL/well of Assay Media into 96-well then add 2.5 ul of 200× concentration of compounds and mix well.
Seed cells for Antagonist Assay: […] CHO-K1-GR-MMTV-Luc reporter cells were seeded in a Corning 3707 flat clear bottom 384-well white TC plate in 20 ul of Assay Media containing 12.5 nM Dexamethasone (final concentration=10 nM).
Add compounds: 5 ul of assay media diluted compounds were added to appropriate wells and followed a quick spin (1000 rpm, 10 sec) to bring media and cells to the bottom of plate. The plates were covered with SealMate film to avoid evaporation and placed in 37° C. incubator for approximately 18-24 hours.
Read plates: Equilibrate appropriate amount of Promega OneGlo luciferase reagent to room temperature. Remove the plates from incubator and add 25 uL of OneGlo reagent/well by multiple channel pipette and read the plates with Tecan F500 luminometer within 3 minutes.
The ability of the compounds disclosed herein to inhibit GR activity was quantified and the respective IC50 value was determined. Table 1and Table 2provide the cellular IC50 values of compounds disclosed herein.
For orientation: In a reporter assay the amount or activity of a reporter protein is the signal.

With `O=C(c1cc(C(F)(F)F)ccn1)[C@]12Cc3cnn(-c4ccc(F)cc4)c3C=C1CC[C@H](S(=O)(=O)c1ccc(F)c(F)c1)C2` [Example 14, ((4aS,6S)-6-((3,4-difluorophenyl)sulfonyl)-1-(4-fluorophenyl)-1,4,5,6,7,8-hexahydro-4aH-benzo[f]indazol-4a-yl)(4-(trifluoromethyl)pyridin-2-yl)methanone], the IC50 was ≤ 100 nM.

`Cc1ccc(S(=O)(=O)[C@H]2CCC3=Cc4c(cnn4-c4ccc(F)cc4)C[C@]3(C(=O)c3cc(C(F)(F)F)ccn3)C2)cc1` [Example 15, ((4aS,6S)-1-(4-fluorophenyl)-6-tosyl-1,4,5,6,7,8-hexahydro-4aH-benzo[f]indazol-4a-yl)(4-(trifluoromethyl)pyridin-2-yl)methanone]: the IC50 is ≤ 100 nM.

With `O=C(c1ccccn1)[C@]12Cc3cnn(-c4ccc(F)cc4)c3C=C1CC[C@@H](S(=O)(=O)c1ccc(F)c(F)c1)C2` [Example 16, ((4aS,6R)-6-((3,4-difluorophenyl)sulfonyl)-1-(4-fluorophenyl)-1,4,5,6,7,8-hexahydro-4aH-benzo[f]indazol-4a-yl)(pyridin-2-yl)methanone], the IC50 was ≤ 100 nM.

With `O=C(c1cc(C(F)(F)F)ccn1)[C@]12Cc3cnn(-c4ccc(F)cc4)c3C=C1CC[C@@H](S(=O)(=O)c1cccc(C(F)(F)F)c1)C2` [Example 17, ((4aS,6R)-1-(4-fluorophenyl)-6-((3-(trifluoromethyl)phenyl)sulfonyl)-1,4,5,6,7,8-hexahydro-4aH-benzo[f]indazol-4a-yl)(4-(trifluoromethyl)pyridin-2-yl)methanone], the IC50 was ≤ 100 nM.

`O=C(c1ccccn1)[C@]12Cc3cnn(-c4ccc(F)cc4)c3C=C1CC[C@@H](S(=O)(=O)c1cccc(C(F)(F)F)c1)C2` [Example 18, ((4aS,6R)-1-(4-fluorophenyl)-6-((3-(trifluoromethyl)phenyl)sulfonyl)-1,4,5,6,7,8-hexahydro-4aH-benzo[f]indazol-4a-yl)(pyridin-2-yl)methanone]: the IC50 is ≤ 100 nM.

Take `COc1ccc(S(=O)(=O)[C@H]2CCC3=Cc4c(cnn4-c4ccc(F)cc4)C[C@]3(C(=O)c3ccccn3)C2)cc1` [Example 19, ((4aS,6S)-1-(4-fluorophenyl)-6-((4-methoxyphenyl)sulfonyl)-1,4,5,6,7,8-hexahydro-4aH-benzo[f]indazol-4a-yl)(pyridin-2-yl)methanone]: the IC50 is ≤ 100 nM.

With `O=C(c1ccccn1)[C@]12Cc3cnn(-c4ccc(F)cc4)c3C=C1CC[C@H](S(=O)(=O)c1ccccc1)C2` [Example 20, ((4aS,6S)-1-(4-fluorophenyl)-6-(phenylsulfonyl)-1,4,5,6,7,8-hexahydro-4aH-benzo[f]indazol-4a-yl)(pyridin-2-yl)methanone], the IC50 was ≤ 100 nM.

As for `O=C(c1ccccn1)[C@]12Cc3cnn(-c4ccc(F)cc4)c3C=C1CC[C@H](S(=O)(=O)Cc1ccccc1)C2` [Example 21, ((4aS,6S)-6-(benzylsulfonyl)-1-(4-fluorophenyl)-1,4,5,6,7,8-hexahydro-4aH-benzo[f]indazol-4a-yl)(pyridin-2-yl)methanone], the IC50 is ≤ 100 nM.

Consider `O=C(c1ccccn1)[C@]12Cc3cnn(-c4ccc(F)cc4)c3C=C1CC[C@H](S(=O)(=O)c1ccc(F)c(F)c1)C2` [Example 22, ((4aS,6S)-6-((3,4-difluorophenyl)sulfonyl)-1-(4-fluorophenyl)-1,4,5,6,7,8-hexahydro-4aH-benzo[f]indazol-4a-yl)(pyridin-2-yl)methanone], for which the IC50 is ≤ 100 nM.

Regarding `Cc1ccnc(C(=O)[C@]23Cc4cnn(-c5ccc(F)cc5)c4C=C2CC[C@H](S(=O)(=O)c2cnn(C)c2)C3)c1` [Example 23, ((4aS,6S)-1-(4-fluorophenyl)-6-((1-methyl-1H-pyrazol-4-yl)sulfonyl)-1,4,5,6,7,8-hexahydro-4aH-benzo[f]indazol-4a-yl)(4-methylpyridin-2-yl)methanone], the IC50 was ≤ 100 nM.

With `O=C(c1ccccn1)[C@]12Cc3cnn(-c4ccc(F)cc4)c3C=C1CC[C@@H](S(=O)(=O)c1ccccc1)C2` [Example 24, ((4aS,6R)-1-(4-fluorophenyl)-6-(phenylsulfonyl)-1,4,5,6,7,8-hexahydro-4aH-benzo[f]indazol-4a-yl)(pyridin-2-yl)methanone], the IC50 is ≤ 100 nM.

In the case of `O=C(c1ccccn1)[C@]12Cc3cnn(-c4ccc(F)cc4)c3C=C1CC[C@H](S(=O)(=O)c1ccc(F)cc1)C2` [Example 25, ((4aS,6S)-1-(4-fluorophenyl)-6-((4-fluorophenyl)sulfonyl)-1,4,5,6,7,8-hexahydro-4aH-benzo[f]indazol-4a-yl)(pyridin-2-yl)methanone], the IC50 is ≤ 100 nM.

Regarding `O=C(c1ccccn1)[C@]12Cc3cnn(-c4ccc(F)cc4)c3C=C1CC[C@H](S(=O)(=O)c1ccccn1)C2` [Example 26, ((4aS,6S)-1-(4-fluorophenyl)-6-(pyridin-2-ylsulfonyl)-1,4,5,6,7,8-hexahydro-4aH-benzo[f]indazol-4a-yl)(pyridin-2-yl)methanone], the IC50 was ≤ 100 nM.

The compound `O=C(c1cc(C(F)(F)F)ccn1)[C@]12Cc3cnn(-c4ccc(F)cc4)c3C=C1CC[C@@H](S(=O)(=O)c1cnns1)C2` [Example 27, ((4aS,6R)-6-((1,2,3-thiadiazol-5-yl)sulfonyl)-1-(4-fluorophenyl)-1,4,5,6,7,8-hexahydro-4aH-benzo[f]indazol-4a-yl)(4-(trifluoromethyl)pyridin-2-yl)methanone] registered an IC50 of 100 to 1000 nM.

`O=C(c1ccccn1)[C@]12Cc3cnn(-c4ccc(F)cc4)c3C=C1CC[C@H](S(=O)(=O)c1cccc(C(F)(F)F)c1)C2` [Example 28, ((4aS,6S)-1-(4-fluorophenyl)-6-((3-(trifluoromethyl)phenyl)sulfonyl)-1,4,5,6,7,8-hexahydro-4aH-benzo[f]indazol-4a-yl)(pyridin-2-yl)methanone]: the IC50 was ≤ 100 nM.

The compound `O=C(c1ccccn1)[C@]12Cc3cnn(-c4ccc(F)cc4)c3C=C1CC[C@@H](S(=O)(=O)c1ccc(F)cc1)C2` [Example 29, ((4aS,6R)-1-(4-fluorophenyl)-6-((4-fluorophenyl)sulfonyl)-1,4,5,6,7,8-hexahydro-4aH-benzo[f]indazol-4a-yl)(pyridin-2-yl)methanone] displayed an IC50 of 100 to 1000 nM.

With `Cc1ccnc(C(=O)[C@]23Cc4cnn(-c5ccc(F)cc5)c4C=C2CC[C@H](S(=O)(=O)c2ccc(F)c(F)c2)C3)c1` [Example 30, ((4aS,6S)-6-((3,4-difluorophenyl)sulfonyl)-1-(4-fluorophenyl)-1,4,5,6,7,8-hexahydro-4aH-benzo[f]indazol-4a-yl)(4-methylpyridin-2-yl)methanone], the IC50 was ≤ 100 nM.

As for `Cc1ccc(C(=O)[C@]23Cc4cnn(-c5ccc(F)cc5)c4C=C2CC[C@H](S(=O)(=O)c2cccc(C(F)(F)F)c2)C3)nc1` [Example 31, ((4aS,6S)-1-(4-fluorophenyl)-6-((3-(trifluoromethyl)phenyl)sulfonyl)-1,4,5,6,7,8-hexahydro-4aH-benzo[f]indazol-4a-yl)(5-methylpyridin-2-yl)methanone], the IC50 was ≤ 100 nM.

On to `O=C(c1ccccn1)[C@]12Cc3cnn(-c4ccc(F)cc4)c3C=C1CC[C@H](S(=O)(=O)c1ccc(C(F)(F)F)cn1)C2` [Example 32, ((4aS,6S)-1-(4-fluorophenyl)-6-((5-(trifluoromethyl)pyridin-2-yl)sulfonyl)-1,4,5,6,7,8-hexahydro-4aH-benzo[f]indazol-4a-yl)(pyridin-2-yl)methanone], for which the IC50 was ≤ 100 nM.

`Cn1ncc(S(=O)(=O)[C@H]2CCC3=Cc4c(cnn4-c4ccc(F)cc4)C[C@]3(C(=O)c3cc(C(F)(F)F)ccn3)C2)n1` [Example 33, ((4aS,6S)-1-(4-fluorophenyl)-6-((2-methyl-2H-1,2,3-triazol-4-yl)sulfonyl)-1,4,5,6,7,8-hexahydro-4aH-benzo[f]indazol-4a-yl)(4-(trifluoromethyl)pyridin-2-yl)methanone]: the IC50 was ≤ 100 nM.

A word on the IC50: it is the concentration that inhibits the measured activity by half. High values mean a need for much substance, low ones inhibition by little substance.
